Measured values: patent US20050090669A1, “Aminoalcohol derivatives as beta-3 adrenergic receptor agonists” (priority 2002, published 2005)

Tested on: Increase in Intravesical Pressure Induced by Carbachol in Anesthetized Dog
Test: Effect on the increase in intravesical pressure induced by carbachol in anesthetized dog
Type: in vivo
Conditions: 0.032 mg/kg intravenously, 30 minutes before carbachol (1.8 μg/kg); female Beagle dogs under halothane anesthesia
Method: Effect on the Increase in Intravesical Pressure Induced by Carbachol in Anesthetized Dog
Female Beagle dogs weighing 8.0-15.0 kg were fasted for 24 hours and maintained under halothane anesthesia. A 12 F Foley catheter was lubricated with water soluble jelly, inserted into the urethral orifice and advanced approximately 10 cm until the balloon tip was placed well inside the bladder. The balloon was then inflated with 5 ml of room air and catheter slowly withdrawn just part the first resistance that is felt at the bladder neck. Urine was completely drained out through the catheter, and 30 ml of biological saline was infused. The catheter was connected to pressure transducer, and intravesical pressure (IVP) was continuously recordered. The test compound was administered intravenously at 30 minutes before the administration of carbachol (1.8 μg/kg). Percent inhibition of IVP increase by test compound was calculated by dividing IVPa (IVP increase induced by carbachol after test compound administaration) by IVPb (IVP increase induced by carbachol just before test compound administration).

COc1ccc(Oc2ccc3c(c2)C[C@@H](NC[C@H](O)c2ccc(Cl)cc2)CC3)cc1C(=O)O.Cl [Test Compound (1), 5-[[(7S)-7-[[(2R)-2-(4-Chlorophenyl)-2-hydroxyethyl]-amino]-5,6,7,8-tetrahydro-2-naphthalenyl]oxy]-2-methoxybenzoic Acid Hydrochloride]
Percent inhibition of IVP increase: 54%
